# Source: patent publication US20030113797A1, “Method for generating, screening and dereplicating natural product libraries for the discovery of therapeutic agents” (UNIGEN PHARMACEUTICALS, INC., priority 2001, published 2003)
# Key:
# [1] = tested on: COX-1 and COX-2 recombinant enzymes; conditions: major compound of fraction D3, Camellia sinensis aqueous extract; cited from earlier work
# [2] = tested on: B16 F1 mouse melanoma cells; test: Inhibition of melanogenesis (alpha-MSH stimulated melanin formation); assay type: cell-based; conditions: identified by dereplication of fractions D2 to D7
# Description: Inhibition of melanogenesis was determined by a modified method of Siegrist and Eberle (x). B16 F1 mouse melanoma cells (2.0×10^4 cells/mL) were subcultured in GibcoBRL Modified Eagle Medium (10% FBS, 1% Gibco non-essential amino acids, 1% PSG, 1.5% Gibco vitamin solution). After 3 days incubation (37° C., 5% CO2) cells were seeded (2500 cells/well, 200 μL) in 96 well sterile culture plates (Costar) and incubated overnight (37° C., 5% CO2). The next day, cell culture medium was replaced with 100 μL fresh medium. Extract samples were dissolved in DMSO at a concentration of 30 mg/mL and diluted 1:1000 in cell culture medium on separate, sterile, 96 well plates. […] Sample wells containing no α-MSH were used to determine sample absorbance at 450 nm unrelated to melanin pigment formation as control. […] The degree of melanin formation was determined at 450 nm in a 96 well plate reader. Percent inhibition of samples was determined by the formula: […]
# Ac MSH+: Absorbance at 450 nm of cells containing no sample, with MSH
# Ac MSH−: Absorbance at 450 nm of cells containing no sample, without MSH
# As MSH+: Absorbance at 450 nm of cells containing sample, with MSH
# As MSH−: Absorbance at 450 nm of cells containing sample, without MSH
SMILES,COX inhibitor (known activity) [1],Inhibition of melanin synthesis [2]
"O=C(O[C@@H]1Cc2c(O)cc(O)cc2O[C@@H]1c1cc(O)c(O)c(O)c1)c1cc(O)c(O)c(O)c1 [Epigallocatechin Gallate (EGCG), Epigallocatechin Gallate]",well known COX inhibitor,
O=C(OC1C(CO)OC(O)C2OC(=O)c3cc(O)c(O)c(O)c3-c3c(cc(O)c(O)c3O)C(=O)OC21)c1cc(O)c(O)c(O)c1 (centres unmarked) [Pterocaryanin B],,inhibition of melanin synthesis
